Assay results taken from patent US12031897B2, “Target-locking single-molecule nanoscopy” (Memorial Sloan Kettering Cancer Center, priority 2019, dated 2024).
“Also recorded” adds a separate entry of the source.

Legend:
Assay type in all cases: cell-based, mouse
[1] = test system: Pou5f1 transcription site (MCP-mNeonGreen nascent RNA); experiment: MCP-mNeonGreen nascent transcription at the endogenous Pou5f1 locus in mESCs (live-cell imaging); conditions: for MCP-mNeonGreen exponential decay time: Pou5f1, mESCs, 10 μM flavopiridol, 10 μM triptolide or 1 μM JQ1, mean±S.D.
Procedure: All the mESCs were cultured and maintained in +2i media with appropriate selection drugs on 0.1% gelatin-coated dishes, at 37° C. in a humidified 5% CO2 incubator. +2i media contain D-MEM (Thermo Fisher Scientific 10313021), 15% fetal bovine serum (Gemini Bio 100-500), 0.1 mM β-mercaptoethanol (Thermo Fisher Scientific 21985023), 2 mM L-alanyl-L-glutamine (Thermo Fisher Scientific 35050079), 1×MEM nonessential amino acids (Thermo Fisher Scientific 11140076), 1000 U/mL LIF (Millipore ESG1107), […] (Millipore 361559) and 1 μM PD0325901 (Axon Medichem 1408). OMG and NMG SNAP-Rpb1 cells were cultured with +2i media plus 3 μg/ml α-amanitin.
Before imaging, cells were seeded onto 8-chamber coverglass (LabTek, 155411) coated with 5 μg/ml laminin (BioLamina LN511), in −2i media (OMG) or +2i media (NMG) and appropriate drugs. For SiR staining, cells were labeled with media containing 0.3 μM SiR-BG for 10 mins, at 37° C., followed by three washes with new media.
Wide-Field Cell Imaging Experiments. Live cell imaging experiments (tdPCP-EGFP and MCP-mNeonGreen tracking). For time-lapse imaging, a z-stack of 11 frames at 1 frame/second was acquired, by stepping the sample along the z-axis using the nanopositioning stage (250 nm steps). The CCD data were analyzed using IDL 6.4 (ITTVIS). Maximum projection images were calculated for each stack, and the resulting 11 sec/frame movie was used to track the intensities of individual tdPCP-EGFP-tagged transcription sites. A particle tracking routine (Crocker and Grier, 1996) was used for finding the positions of the transcription site in each frame and linking them into a 2D trajectory. The intensity trace of tdPCP-EGFP at the transcription site was corrected for photo-bleaching using the time trace of tdPCP-EGFP in a nearby nuclear region. The auto-correlation function was calculated (for the tdPCP-EGFP fluctuation analysis), or the data were imported in Origin 8.5.0 (OriginLab) and the trace fitted to a single-exponential decay (for the transcription inhibition experiments).

[2] = test system: Sox2 foci at the Pou5f1 locus; experiment: Sox2 cluster signal at Pou5f1 upon inhibition (live-cell confocal/STED scans); conditions: 1 μM JQ1 or 10 μM Flavopiridol
Excerpt: Contrary to Brd4, Med22 and Cdk9, Sox2 clustering persists through transcription inhibition by either JQ1 or FVP (FIG. 8D). The differential sensitivities between factors and modes of transcription inhibition unveil a hierarchy of molecular transactions that control Pou5f1 transcription: Sox2 binding occurs upstream of Cdk9/Med22/Brd4 recruitment and accumulation of all of 4 regulatory factors occurs upstream of Pol II release into productive elongation. […] For real-time confocal and STED imaging, example implementations may program the wave generator to scan 2 μm×2 μm or 1 μm×1 μm xy areas in 0.8 sec or 0.2 sec respectively. 3D scanning was performed (via, e.g., detection system 150) by acquiring 5 xy scans while moving the stage by 0.5 μm in z between scans. TTL pulses corresponding to single-photon events from the APDs, together with the trigger pulses from the wave generator were detected using a field-programmable gate array (FPGA) data acquisition system (National Instruments, PCIe-7852R). Before imaging, cells were seeded onto 8-chamber coverglass (LabTek, 155411) coated with 5 μg/ml laminin (BioLamina LN511), in -2i media (OMG) or +2i media (NMG) and appropriate drugs. For SiR staining, cells were labeled with media containing 0.3 μM SiR-BG for 10 mins, at 37° C., followed by three washes with new media. Targeted integration of SNAP-tag in the endogenous Sox2, Cdk9, Brd4 and Med22 genes. To generate OMG or NMG SNAP-Sox2 targeted cells, OMG-1 or NMG mESCs (1×106) were transfected with 10 μg SNAP-Sox2 donor vector and 0.6 μg […] vector. 10 days after transfection, the cells were trypsinized, labeled with 0.3 μM SiR-BG for 10 mins, rinsed three times with new media, followed by immediate fluorescence-activated cell sorting (FACS). All the SiR-positive cells were collected, expanded for 2 weeks, trypsinized, labeled with SiR-BG and sorted again. Almost 100% SNAP positive pools were obtained from the second round of sorting and individual clones were picked and expanded. Homozygous clones (dubbed “OMG SNAP-Sox2 clone 8” and NMG SNAP-Sox2 clone 3'' respectively) with both Sox2 alleles correctly targeted with SNAP-tag integrations and that show SiR nuclear staining were selected for all further experiments.

[3] = test system: Pol II (SiR-Rpb1) at the Pou5f1 transcription site; experiment: SiR-Rpb1 (Pol II) dynamics at Pou5f1 after drug addition (target-locking); conditions: for Rpb1 exponential decay time from fits: Pou5f1, 10 μM flavopiridol, 10 μM triptolide or 1 μM JQ1; for Pol II signal at Pou5f1 upon transcription inhibition: paralleled by nascent RNA loss
Procedure: The images obtained from the Ixon3 897 detector (e.g., detection system 150) were analyzed on the fly by non-linear least-squares fitting of a 21×21 pixel ROI to a 2D Gaussian peak function implemented in LabVIEW. Axial localization was achieved either though the degree of defocus or based on astigmatism. The coordinates returned by the 2D Gaussian peak fit were passed onto a PID controller that calculated the desired position correction that was commanded to the nanopositioning stage controller. The LabVIEW application ran at sustained speeds of up to 30 frames/second. Before imaging, cells were seeded onto 8-chamber coverglass (LabTek, 155411) coated with 5 μg/ml laminin (BioLamina LN511), in −2i media (OMG) or +2i media (NMG) and appropriate drugs. For SiR staining, cells were labeled with media containing 0.3 μM SiR-BG for 10 mins, at 37° C., followed by three washes with new media. OMG-1 or NMG mESCs (1×106) were transfected with 10 μg PB007-EF1α-Flag-SNAP-Rpb1 (αAmR) and 1 μg pCMV-hyPBase vectors using Lipofectamine 2000 (Invitrogen 11668019). Cells were subjected to 3 mg/ml α-amanitin 2 days post-transfection. Individual α-amanitin-resistant colonies were picked after ˜2 weeks, expanded, labeled with SiR-BG and imaged.

SMILES	Hill equation n, relative MCP signal vs. [JQ1] ([1]; Pou5f1)	MCP-mNeonGreen exponential decay time [1]	response of individual Pou5f1 transcription sites at intermediate inhibitor concentration ([1]; intermediate [A-485] or [JQ1])	Pou5f1 transcription activity ([1]; upon JQ1 (FIG. 7A, 1 μM))	Sox2 clustering at Pou5f1 upon transcription inhibition [2]	Rpb1 exponential decay time from fits [3]	Pol II signal at Pou5f1 upon transcription inhibition [3]
Cc1sc2c(c1C)C(c1ccc(Cl)cc1)=N[C@@H](CC(=O)OC(C)(C)C)c1nnc(C)n1-2 [JQ1]	1.1±0.7	300 ± 136 s	decays to a new finite plateau; also recorded: attenuated output, without completely shutting down	abruptly abolishes	persists	310 ± 123 s	–
CN1CC[C@H](c2c(O)cc(O)c3c(=O)cc(-c4ccccc4Cl)oc23)[C@H](O)C1 [flavopiridol]	–	378 ± 193 s	–	–	persists	347 ± 104 s	gradual Pol II signal loss
CC(C)[C@]12O[C@H]1[C@@H]1O[C@]13[C@]1(O[C@H]1C[C@H]1C4=C(CC[C@@]13C)C(=O)OC4)[C@@H]2O [triptolide]	–	378 ± 115 s	–	–	–	565 ± 109 s	gradual Pol II signal loss
